Results reported in patent publication US8478375B2, “Sensor for detection of carbohydrate” (Medtronic Minimed, Inc., priority 2004, dated 2013).

Biological target: MBL (Homo sapiens, UniProt P11226)
Experiment: Affinity of monomeric saccharides for MBL
Type: binding

MBL, sequence (P11226 21-248): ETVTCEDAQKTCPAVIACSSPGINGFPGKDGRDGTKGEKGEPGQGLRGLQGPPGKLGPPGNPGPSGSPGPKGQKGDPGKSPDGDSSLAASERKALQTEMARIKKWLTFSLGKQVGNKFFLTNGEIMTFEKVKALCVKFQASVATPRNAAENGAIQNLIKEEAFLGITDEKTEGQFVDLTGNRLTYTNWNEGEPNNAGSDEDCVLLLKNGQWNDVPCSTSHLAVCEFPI

## CC(=O)N[C@H]1C(O)O[C@H](CO)[C@@H](O)[C@@H]1O (some centres unmarked) [N-acetyl-glucosamine]
  affinity for MBL: high affinity

## O=C[C@H](O)[C@@H](O)[C@@H](O)[C@H](O)CO [galactose]
  affinity for MBL: very low affinity
